Measured values from article PMC6330446, “An integrated characterization of contractile, electrophysiological, and structural cardiotoxicity of Sophora tonkinensis Gapnep. in human pluripotent stem cell-derived cardiomyocytes” (Stem Cell Research & Therapy, 2019).
Entries after “also recorded” stand apart in the source; their conditions may differ.

How the values were obtained:
GCaMP hESC-CMs = type: cell-based, human; conditions: GCaMP hESC-CMs; high dose of alkaloids (50 μM), aconitine 1 μM
Method: The hESC-CMs in this experiment can express the GCaMP reporter gene by gene editing, and green fluorescence marker can be observed by a fluorescence microscope. The fluorescence intensity is proportional to Ca^2+ concentration. The CMs were seeded into 96-well plates at 5000/well and were administered the same as above. The fluorescence intensities of hESC-CMs were monitored using an IncuCyte™ S3 ZOOM cell imaging system (Essen BioScience, Ann Arbor, MI). Data were presented as the mean ± SEM, n ≥ 3.

hiPSC-CMs [1] = assay: CK-MB and cardiac troponin I ELISA assay; type: cell-based, human; conditions: alkaloids 2, 10, 50 μM, aconitine 1 μM
Method: (§1) After plating for about 3 days, CMs matured and began to beat. At this time, different compounds were added, and experiments were performed 24 h after treatment. The experiments were grouped as follows: control group (normal medium); matrine, oxymatrine, sophocarpine, and cytisine treatment (2, 10, 50 μM) groups; and aconitine treatment (1 μM) group. The doses of toxicity studies above were determined by the effective therapeutic doses reported and included or exceeded the therapeutic dose.
Cell treatment method was the same as above. After the administration, the cells were digested and then destroyed by repeated freeze-thaw and sonication to release the components in the cells. Centrifuged at 2500 rpm for 20 min, the supernatant was collected for the detection of creatine kinase MB isoenzyme (CK-MB) and cardiac troponin I (CTn-I) ELISA kit (Expandbiotech, Beijing, China) following the manufacturer’s instructions. Data were presented as the mean ± SEM, n ≥ 3.

hiPSC-CMs [2] = type: cell-based, human; conditions: hiPSC-CMs; high dose of alkaloids (50 μM), aconitine 1 μM
Method: Cells were incubated in a maintaining medium containing 10 μM DCFH-DA (Beyotime Biotechnology, Shanghai, China) for 30 min at 37 °C in the dark. The measurement of ROS was performed with IncuCyte™ S3 ZOOM cell imaging system (Essen BioScience, Ann Arbor, MI). TissueQuest 6.0 was used for the quantitative analysis of ROS formation. Data were presented as the mean ± SEM, n ≥ 3.

hiPSC-CMs [3] = assay: TUNEL staining (apoptosis); type: cell-based, human; conditions: high dose of alkaloids, aconitine
Method: Supplementary file 13287_2018_1126_MOESM1_ESM.tif: Additional file 1: Figure S1. Effect of matrine, oxymatrine, cytisine, and sophocarpine on TUNEL staining in hiPSC-CMs. After treatment with matrine, oxymatrine, cytisine, and sophocarpine, the images of TUNEL fluorescence and bright field were acquired intuitively using IncuCyte™ S3 ZOOM cell imaging system and the fluorescence intensity was analyzed quantitatively using TissueQuest 6.0. […] The scale bar is 400 μm. Data are presented as the mean ± SEM, n ≥ 3. […] vs the control group. (TIF 23588 kb)

hiPSC-CMs [4] = conditions: hiPSC-CMs; alkaloids 2, 10, 50 μM, aconitine 1 μM
Method: as §1
Cell treatment method was the same as above. After reaching the predetermined time, 120 μl of the supernatant of each well was taken for measuring LDH leakage using a commercially available kit (Beyotime Biotechnology, Shanghai, China) following the manufacturer’s instructions. Data were presented as the mean ± SEM, n ≥ 3.

hiPSC-CMs [5] = conditions: hiPSC-CMs; alkaloids 2, 10, 50 μM, aconitine 1 μM; 24 h
Method: as §1
CMs were incubated in 10% CCK-8 (Dojindo, Kumamoto, Japan) that was diluted in normal culture medium at 37 °C until a visual color conversion occurred. The absorbance of each well was measured using a microplate reader (Spectrafluor, TECAN, Sunrise, Austria) at 450 nm. Three individual experiments were performed. All samples were operated in duplicate.
A 96-well plate was used to seed hiPSC-CMs at a concentration of 5 × 10^4 cells per well. The cultured cells were treated with different concentrations of compounds and were incubated for another 48 h. CMs were digested with trypsin, and a small amount of cell suspension was added into the same amount of trypan blue solution. Countstar Automated Cell Counter IC1000 (Elite Life Sciences, Shanghai, China) was used to count the number of total and living cells. Data were presented as the mean ± SEM, n ≥ 3.

CCN1C[C@]2(COC)[C@H](O)C[C@H](OC)[C@@]34[C@@H]5C[C@@]6(O)[C@H](OC(=O)c7ccccc7)[C@@H]5[C@@](OC(C)=O)([C@@H]([C@H](OC)[C@H]23)[C@@H]14)[C@@H](O)[C@@H]6OC [aconitine, reference compound]
Fluorescence intensity of calcium, [Ca^2+]i (in words) (GCaMP hESC-CMs): increased drastically | CK-MB level (in words) (hiPSC-CMs [1]): induced a large amount; also recorded: increased immensely | CTnI level (in words) (hiPSC-CMs [1]): induced a large amount | ROS fluorescence / ROS production (in words) (hiPSC-CMs [2]): induced excessive ROS production | TUNEL fluorescence staining (in words) (hiPSC-CMs [3]): huge increase | LDH level in the supernatant (in words) (hiPSC-CMs [4]): induced a large amount; also recorded: increased immensely | Cell viability (in words) (hiPSC-CMs [5]): showed a great significance
